Here are results for 4 sequences from patent publication US11000560B2, “Oncolytic adenoviruses with mutations in immunodominant adenovirus epitopes and their use in cancer treatment” (VCN B[…], priority 2015, dated 2021).

The subject of the test is human HLA-A2.1. The experiment in a line: HLA-A2.1 stabilization assay (RMA-S A2 cells). Format: binding. The following applies: for reduction of HLA-A2 binding compared to unmodified counterpart: from Kd values; for HLA-A2 binding compared to unmodified counterpart: peptide 300 to 0.1 μM. As to the method: An HLA-A2.1 stabilization assay was used, with minor modifications from Takiguchi et al. (Takiguchi, M., Tissue Antigens. 2000 April; 55(4):296-302) (incorporated by reference herein in its entirety), to evaluate the binding affinity of mutated peptides. Murine cells expressing HLA-A2.1 (RMA-S A2 cells) were incubated for 18 h at 26° C. in order to allow for HLA-A2 surface expression in the absence of any peptide. Peptides were serially diluted 1:3 in a 96-well plate with a U shape bottom, starting with 300 μM up to 0.1 μM in 100 μl volume. 2.5e5 RMA-S A2 cells were added to each well in 100 μl volume. The mixture was incubated for 2 hours at 26° C. and then at 37° C. for 2 hours to allow unbound HLA-A2.1 to be internalized. Cells were spun for 3 minutes at 500 g and washed three times with PBS, FBS 5%, BSA 0.5%. Cells were incubated with 100 μl of the supernatant of hybridoma anti-HLA-A2.1 (PA2.1) and incubated for 30 minutes at 4° C. Cells were washed three times and then incubated with Alexa Fluor® 488 goat anti-mouse IgG (Molecular Probes®) at 1:500 dilution for 30 minutes at 4° C. Cells were washed three times and then analyzed with Gallios flow cytometer (Beckman Coulter). As a negative control, RMA-S A2 cells were incubated with a peptide having no affinity to HLA-A2.1 under the same experimental conditions. The fluorescence index was calculated using the formula: Fluorescein Index=(sample fluorescence−negative control fluorescence)/negative control fluorescence.
Using GraphPad Prism v5, Kd values were analyzed using a non-linear regression. A Kd value was obtained for each peptide that represents the binding constant in equilibrium with half of the maximum possible binding.

On to GLVDCYINP [L520P], for which the “reduction of HLA-A2 binding compared to unmodified counterpart” value is on record as “more than 10 times”.

For the sequence YLNHTFKKA [V721A], the “HLA-A2 binding compared to unmodified counterpart” value is “maintained the same level of binding”.

In the case of YVLFEVFDK [V925K], the “reduction of HLA-A2 binding compared to unmodified counterpart” value is around 600 times.

With LLYANSAHS [A900S], the “HLA-A2 binding compared to unmodified counterpart” value is given as “maintained the same level of binding”.
